Laboratory results reported in ChEMBL document CHEMBL1201862, “PubChem BioAssay data set” (2004).
Blank lines part the entries; values can stand above or below the compound they belong to. Active and inactive are the calls of the source.

How the values were obtained:
[1] = target: T1, 1-phosphatidylinositol 4,5-bisphosphate phosphodiesterase gamma-1 (Homo sapiens, UniProt P19174); experiment: Counterscreen for inhibitors of phospholipase C isozymes (PLC-B3): Fluorescence-based biochemical high throughput dose response assay to identify inhibitors of phospholipase C isozymes (PLC-gamma1).
T1 sequence (P19174 whole entry): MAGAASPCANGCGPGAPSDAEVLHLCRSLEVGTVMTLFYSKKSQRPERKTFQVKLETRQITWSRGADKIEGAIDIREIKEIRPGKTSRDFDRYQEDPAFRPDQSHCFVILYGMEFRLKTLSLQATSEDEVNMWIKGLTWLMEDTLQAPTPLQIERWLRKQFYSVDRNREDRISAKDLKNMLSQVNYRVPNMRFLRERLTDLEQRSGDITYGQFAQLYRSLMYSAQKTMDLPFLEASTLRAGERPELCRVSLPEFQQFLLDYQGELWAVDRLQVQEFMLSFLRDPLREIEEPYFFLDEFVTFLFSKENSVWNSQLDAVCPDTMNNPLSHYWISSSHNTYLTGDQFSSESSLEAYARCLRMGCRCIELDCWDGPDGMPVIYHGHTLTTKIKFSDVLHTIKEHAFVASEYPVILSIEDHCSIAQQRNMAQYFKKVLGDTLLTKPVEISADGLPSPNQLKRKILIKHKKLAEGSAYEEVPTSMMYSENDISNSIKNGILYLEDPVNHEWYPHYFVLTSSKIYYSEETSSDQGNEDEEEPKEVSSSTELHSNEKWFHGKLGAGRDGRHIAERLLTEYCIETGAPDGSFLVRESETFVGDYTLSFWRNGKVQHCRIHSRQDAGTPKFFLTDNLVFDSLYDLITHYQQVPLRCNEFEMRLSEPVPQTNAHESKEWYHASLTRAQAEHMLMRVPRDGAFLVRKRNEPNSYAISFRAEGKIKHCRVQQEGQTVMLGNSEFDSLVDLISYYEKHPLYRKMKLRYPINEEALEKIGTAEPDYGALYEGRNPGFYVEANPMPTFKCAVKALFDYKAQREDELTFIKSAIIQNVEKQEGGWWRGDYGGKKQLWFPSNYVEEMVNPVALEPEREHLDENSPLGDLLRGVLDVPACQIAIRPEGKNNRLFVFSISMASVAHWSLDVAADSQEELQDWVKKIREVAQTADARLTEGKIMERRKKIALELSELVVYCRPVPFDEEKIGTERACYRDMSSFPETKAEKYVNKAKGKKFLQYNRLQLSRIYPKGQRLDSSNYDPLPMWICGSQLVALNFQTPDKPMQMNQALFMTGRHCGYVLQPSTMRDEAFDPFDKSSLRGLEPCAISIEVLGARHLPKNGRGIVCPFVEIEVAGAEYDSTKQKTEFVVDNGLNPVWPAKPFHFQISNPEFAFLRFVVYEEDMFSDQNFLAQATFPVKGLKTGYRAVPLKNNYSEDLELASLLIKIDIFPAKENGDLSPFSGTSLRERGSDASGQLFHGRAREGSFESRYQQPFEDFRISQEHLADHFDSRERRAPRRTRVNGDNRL

[2] = target: T2, 1-phosphatidylinositol 4,5-bisphosphate phosphodiesterase beta-3 (Homo sapiens, UniProt Q01970); experiment: Fluorescence-based biochemical high throughput dose response assay to identify inhibitors of phospholipase C isozymes (PLC-B3).
T2 sequence (Q01970 whole entry): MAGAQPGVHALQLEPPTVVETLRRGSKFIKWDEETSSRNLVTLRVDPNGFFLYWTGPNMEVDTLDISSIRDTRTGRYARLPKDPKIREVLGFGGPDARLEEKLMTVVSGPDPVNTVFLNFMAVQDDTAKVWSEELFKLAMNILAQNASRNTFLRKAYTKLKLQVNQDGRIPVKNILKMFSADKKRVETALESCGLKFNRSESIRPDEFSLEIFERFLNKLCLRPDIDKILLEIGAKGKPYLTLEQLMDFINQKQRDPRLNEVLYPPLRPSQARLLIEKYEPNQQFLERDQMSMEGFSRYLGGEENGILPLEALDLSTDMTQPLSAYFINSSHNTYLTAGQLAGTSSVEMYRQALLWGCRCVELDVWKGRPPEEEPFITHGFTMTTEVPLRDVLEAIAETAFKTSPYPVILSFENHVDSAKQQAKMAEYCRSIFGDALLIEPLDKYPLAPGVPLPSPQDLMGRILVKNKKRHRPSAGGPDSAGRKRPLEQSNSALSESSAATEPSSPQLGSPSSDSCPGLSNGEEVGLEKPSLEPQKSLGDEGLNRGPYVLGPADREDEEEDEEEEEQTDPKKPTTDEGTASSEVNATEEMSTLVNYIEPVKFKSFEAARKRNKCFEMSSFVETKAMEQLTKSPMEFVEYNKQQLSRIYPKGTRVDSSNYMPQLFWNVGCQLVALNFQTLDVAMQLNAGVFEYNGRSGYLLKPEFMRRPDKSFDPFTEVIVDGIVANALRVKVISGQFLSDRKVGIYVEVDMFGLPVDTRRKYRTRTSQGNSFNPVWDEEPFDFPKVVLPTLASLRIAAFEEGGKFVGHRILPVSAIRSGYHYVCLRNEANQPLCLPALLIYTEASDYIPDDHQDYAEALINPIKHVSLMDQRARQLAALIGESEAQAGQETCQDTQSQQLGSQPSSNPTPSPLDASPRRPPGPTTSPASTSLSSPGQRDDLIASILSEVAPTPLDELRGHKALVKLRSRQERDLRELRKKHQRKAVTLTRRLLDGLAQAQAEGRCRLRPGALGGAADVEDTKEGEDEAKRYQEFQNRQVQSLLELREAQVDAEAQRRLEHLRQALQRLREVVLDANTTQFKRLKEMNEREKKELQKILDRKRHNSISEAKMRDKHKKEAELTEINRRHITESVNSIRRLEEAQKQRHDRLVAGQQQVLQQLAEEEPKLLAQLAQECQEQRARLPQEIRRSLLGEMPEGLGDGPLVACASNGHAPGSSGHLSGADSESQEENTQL

[3] = LGR2 antagonists, dose response, cell-based, HEK293, CRE-luciferase reporter, cherry pick, set 2 (AID 743343); type: functional;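 also: transfected cells were stimulated with diluted bursicon conditioned medium after compound addition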
[4] = MC4R antagonists, dose response, counter-screen for LGR2 antagonist project, cell-based, plate reader, cherry pick (AID 743444); type: functional;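 also: transfected HEK 293 cells stimulated with alpha-MSH peptide; potency of inhibitors of the alpha-MSH evoked signal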
[5] = HEK293 cell cytotoxicity, dose response, cytotoxicity control, plate reader, cherry-picked samples (AID 743446); type: functional, cell-based
Genome polyprotein = Genome polyprotein (dengue virus type 2, UniProt P29990); experiment: Dengue-2 NS5 methyltransferase inhibitors, primary screen, biochemical, confirmation dose response (AID 588689); type: functional
Sequence of Genome polyprotein (P29990 2492-3391 limits assumed): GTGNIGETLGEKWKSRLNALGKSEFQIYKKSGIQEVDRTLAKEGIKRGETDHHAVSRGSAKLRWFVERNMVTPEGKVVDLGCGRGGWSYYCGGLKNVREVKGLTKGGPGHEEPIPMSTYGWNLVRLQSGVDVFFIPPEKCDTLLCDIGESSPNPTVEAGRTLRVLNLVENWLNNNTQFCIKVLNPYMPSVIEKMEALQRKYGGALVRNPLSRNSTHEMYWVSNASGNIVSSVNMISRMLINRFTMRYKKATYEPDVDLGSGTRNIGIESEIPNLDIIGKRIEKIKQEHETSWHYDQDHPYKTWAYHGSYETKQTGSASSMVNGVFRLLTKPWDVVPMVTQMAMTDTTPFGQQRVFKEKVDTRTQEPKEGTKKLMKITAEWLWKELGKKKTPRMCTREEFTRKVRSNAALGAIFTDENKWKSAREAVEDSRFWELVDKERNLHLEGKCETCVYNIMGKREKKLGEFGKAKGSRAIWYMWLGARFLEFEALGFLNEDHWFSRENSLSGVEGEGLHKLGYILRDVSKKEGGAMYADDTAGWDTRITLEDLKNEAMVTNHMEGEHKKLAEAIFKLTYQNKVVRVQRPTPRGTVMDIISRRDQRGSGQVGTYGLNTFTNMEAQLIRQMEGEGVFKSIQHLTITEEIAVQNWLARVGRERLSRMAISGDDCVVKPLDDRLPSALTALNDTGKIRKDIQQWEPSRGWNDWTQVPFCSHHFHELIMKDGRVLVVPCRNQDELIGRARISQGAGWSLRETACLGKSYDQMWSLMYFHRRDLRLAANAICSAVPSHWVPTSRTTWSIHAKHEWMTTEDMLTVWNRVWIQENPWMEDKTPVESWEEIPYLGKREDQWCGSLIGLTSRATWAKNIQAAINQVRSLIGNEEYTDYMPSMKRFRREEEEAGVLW

Albumin = Albumin (Bos taurus, UniProt P02769); experiment: Counterscreen for inhibitors of T-cell receptor (TCR)-CD3 interaction: Fluorescence-based biochemical high throughput dose response assay to identify inhibitors of T-cell receptor (TCR)-CD3 interaction using a TAMRA-labeled BSA probe.; type: functional
Sequence of Albumin (P02769 whole entry): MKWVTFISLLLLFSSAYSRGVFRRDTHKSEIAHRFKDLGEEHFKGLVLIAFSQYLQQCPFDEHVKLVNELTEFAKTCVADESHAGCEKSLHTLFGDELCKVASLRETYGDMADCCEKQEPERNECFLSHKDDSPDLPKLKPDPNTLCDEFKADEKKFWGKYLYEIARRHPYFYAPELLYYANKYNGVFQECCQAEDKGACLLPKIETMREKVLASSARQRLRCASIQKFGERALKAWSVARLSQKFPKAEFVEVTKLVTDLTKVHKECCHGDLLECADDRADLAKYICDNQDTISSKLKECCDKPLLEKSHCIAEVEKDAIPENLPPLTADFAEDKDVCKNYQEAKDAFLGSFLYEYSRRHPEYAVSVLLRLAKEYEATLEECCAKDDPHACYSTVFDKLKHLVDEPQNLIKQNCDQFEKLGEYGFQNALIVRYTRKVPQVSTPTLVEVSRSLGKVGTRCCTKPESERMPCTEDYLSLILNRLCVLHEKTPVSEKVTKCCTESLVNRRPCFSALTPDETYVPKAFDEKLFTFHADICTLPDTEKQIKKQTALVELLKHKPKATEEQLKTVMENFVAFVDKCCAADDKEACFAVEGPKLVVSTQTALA

[6] = target: T3, Histone-lysine N-methyltransferase NSD2 (Homo sapiens, UniProt O96028); type: biochemical
T3 sequence (O96028 whole entry): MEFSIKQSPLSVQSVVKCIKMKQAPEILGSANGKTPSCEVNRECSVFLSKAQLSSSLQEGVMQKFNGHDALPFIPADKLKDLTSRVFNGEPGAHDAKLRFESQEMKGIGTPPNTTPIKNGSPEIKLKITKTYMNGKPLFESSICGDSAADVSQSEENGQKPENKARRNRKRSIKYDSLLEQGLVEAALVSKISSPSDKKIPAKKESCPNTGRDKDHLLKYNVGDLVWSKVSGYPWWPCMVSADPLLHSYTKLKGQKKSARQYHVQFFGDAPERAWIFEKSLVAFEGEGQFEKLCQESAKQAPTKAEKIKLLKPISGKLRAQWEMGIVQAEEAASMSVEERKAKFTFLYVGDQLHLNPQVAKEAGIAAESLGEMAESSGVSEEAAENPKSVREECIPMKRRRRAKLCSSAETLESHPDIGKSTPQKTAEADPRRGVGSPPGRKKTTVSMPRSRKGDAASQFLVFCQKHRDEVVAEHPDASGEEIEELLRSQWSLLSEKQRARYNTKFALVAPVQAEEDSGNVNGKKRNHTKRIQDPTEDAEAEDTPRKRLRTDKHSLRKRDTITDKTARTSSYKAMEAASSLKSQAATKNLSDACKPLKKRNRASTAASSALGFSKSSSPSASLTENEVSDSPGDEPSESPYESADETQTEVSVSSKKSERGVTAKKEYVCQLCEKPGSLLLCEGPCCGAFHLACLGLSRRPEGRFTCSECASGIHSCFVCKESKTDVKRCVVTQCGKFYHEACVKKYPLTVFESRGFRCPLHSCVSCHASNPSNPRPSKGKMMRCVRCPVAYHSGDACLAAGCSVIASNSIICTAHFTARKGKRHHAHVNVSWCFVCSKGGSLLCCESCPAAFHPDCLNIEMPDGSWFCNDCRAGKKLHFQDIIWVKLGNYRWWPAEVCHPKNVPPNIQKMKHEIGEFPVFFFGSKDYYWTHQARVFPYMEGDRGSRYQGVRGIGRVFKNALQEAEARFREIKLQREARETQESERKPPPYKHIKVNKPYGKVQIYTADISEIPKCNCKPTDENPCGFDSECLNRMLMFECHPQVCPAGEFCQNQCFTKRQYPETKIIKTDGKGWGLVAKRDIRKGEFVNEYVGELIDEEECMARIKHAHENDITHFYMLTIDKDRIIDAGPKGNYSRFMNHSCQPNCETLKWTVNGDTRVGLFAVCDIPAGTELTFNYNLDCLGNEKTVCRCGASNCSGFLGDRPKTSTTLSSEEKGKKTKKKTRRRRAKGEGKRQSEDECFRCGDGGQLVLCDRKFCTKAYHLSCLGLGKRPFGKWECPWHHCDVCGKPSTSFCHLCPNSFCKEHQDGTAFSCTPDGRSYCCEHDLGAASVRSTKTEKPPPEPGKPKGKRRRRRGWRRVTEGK

[7] = target: T4, Rac GTPase-activating protein 1 (Homo sapiens, UniProt Q9H0H5); experiment: MgcRacGAP GTPase-activating activity inhibitors, confirmation, biochemical, ADP Hunter fluorescence, primary and confirmatory (AID 624330); type: functional
T4 sequence (Q9H0H5 whole entry): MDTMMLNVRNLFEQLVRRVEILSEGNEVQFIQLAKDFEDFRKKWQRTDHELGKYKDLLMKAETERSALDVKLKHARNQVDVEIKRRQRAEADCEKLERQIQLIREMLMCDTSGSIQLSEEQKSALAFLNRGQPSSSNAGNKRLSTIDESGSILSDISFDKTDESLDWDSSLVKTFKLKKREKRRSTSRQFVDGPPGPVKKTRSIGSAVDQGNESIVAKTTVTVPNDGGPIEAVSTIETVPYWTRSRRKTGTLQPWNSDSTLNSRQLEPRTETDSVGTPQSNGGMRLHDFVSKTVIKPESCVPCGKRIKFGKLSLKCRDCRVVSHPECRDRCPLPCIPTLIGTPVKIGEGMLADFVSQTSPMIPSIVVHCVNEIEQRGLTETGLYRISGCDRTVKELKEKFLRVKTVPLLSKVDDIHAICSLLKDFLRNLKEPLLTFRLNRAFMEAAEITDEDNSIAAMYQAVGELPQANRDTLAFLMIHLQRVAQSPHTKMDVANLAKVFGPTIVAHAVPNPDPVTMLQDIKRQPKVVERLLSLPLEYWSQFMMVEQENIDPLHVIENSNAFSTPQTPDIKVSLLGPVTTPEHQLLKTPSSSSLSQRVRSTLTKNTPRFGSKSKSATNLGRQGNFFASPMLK

[8] = P. falciparum Dd2 growth inhibitors, dose response, SYBR Green, cherry-picked samples (AID 1159567); type: functional, cell-based
[9] = HepG2 cell cytotoxicity, dose response, cytotoxicity control, cherry-picked samples (AID 1159577); type: functional, cell-based
[10] = inhibitors of PGC1a acetylation in cells, dose response, cell-based, cherry-picked samples (AID 720514); type: functional;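 also: potency may reflect raised or lowered acetylation signal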
[11] = T. cruzi growth inhibition in host cells, dose response, cell-based, plate reader, dry powder, set 2 (AID 652275); type: functional
[12] = P. falciparum 3D7-ScDHODH growth inhibitors, dose response, SYBR Green, dry powder samples (AID 1159570); type: functional, cell-based;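 also: parasite growth measured after 72 hours of compound exposure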
[13] = P. falciparum ATP4 D1247Y mutant growth inhibitors, dose response, NITD609-resistant line, SYBR Green, dry powder (AID 1159571); type: functional, cell-based;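 also: parasites synchronized at ring stage by sorbitol before testing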
[14] = P. falciparum Dd2 growth inhibitors, dose response, SYBR Green, dry powder samples (AID 1159566); type: functional, cell-based;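 also: potency for growth inhibition with lower SYBR green DNA signal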
[15] = HepG2 cell cytotoxicity, dose response, cytotoxicity control, plate reader, dry powder samples (AID 1159569); type: functional, cell-based;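 also: inhibitor potency with signal falling toward the positive control level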

IC50 [1]: > 123 µM (inactive)
IC50 [2]: > 123 µM (inactive)
SMILES: COc1ccc(NC(=O)c2cc(-c3ccc(OC)c(OC)c3)on2)cc1OC

SMILES: Cc1cc(C(=O)COC(=O)c2cccn2C)c(C)n1Cc1ccco1
AC50 [3]: 5.16 µM (active)
AC50 [4]: 9.65 µM (active)
AC50 [5]: > 52 µM (inactive)

SMILES: CCOc1cc(Br)cc(C(c2c(C(=O)O)[nH]c3ccccc23)c2c(C(=O)O)[nH]c3ccccc23)c1O
IC50 [1]: 18.6 µM (inactive)
IC50 [2]: > 122 µM (inactive)
IC50 (Genome polyprotein): 18.7 µM (active)

SMILES: CN(C)C=O.O=C(O)c1ccccc1NS(=O)(=O)c1ccc(N/N=C/c2ccc(O)c(O)c2)c([N+](=O)[O-])c1
IC50 (Albumin): > 94.1 µM (inactive)
AC50 [6]: 1.71 µM (active)
IC50 [7]: 60.7 µM (active)

IC50 [1]: > 122 µM (inactive)
IC50 [2]: > 122 µM (inactive)
SMILES: COC(=O)C[C@@H]1CC[C@@H]2[C@H](COc3ccc(NC(=O)c4cccc(F)c4)cc3C(=O)N2C)O1

SMILES: COc1cc(CN2C[C@@H]3N[C@H](C2)[C@@H]3c2ccc(/C=C/c3ccccc3)cc2)cc(OC)c1
AC50 [8]: 2.38 µM (active)
AC50 [9]: 6.51 µM (active)
AC50 [10]: 13 µM (active)

SMILES: COC[C@H](C)N1C[C@H](C)[C@@H](CN(C)Cc2ccc(Cl)cc2)Oc2c(NC(=O)c3ccncc3)cccc2C1=O
AC50 [11]: 0.00139 µM (active)

SMILES: COCC(=O)N1CCCCN2[C@@H](CO)[C@H](c3ccc(-c4cccc(C)c4)cc3)[C@@H]2C1
AC50 [11]: 1.42 µM (active)

SMILES: O=C(c1ccncc1)N1CCCCN2[C@@H](CO)[C@H](c3ccc(-c4ccccc4)cc3)[C@@H]2C1
AC50 [11]: 4.5 µM (active)

SMILES: COc1ccc2c3c(n(C)c2c1)[C@H](CO)N(C(=O)Nc1ccc(F)cc1)CC31CN(C(=O)c2ccc3c(c2)OCO3)C1
AC50 [12]: 1.89 µM (active)
AC50 [8]: 2.68 µM (active)
AC50 [13]: 1.2 µM (active)
AC50 [14]: 0.683 µM (active)
AC50 [15]: > 100 µM (inactive)
